Data reported in US7910576B2, “Pyrrole derivatives as P2Y12 antagonists” (Sanofi-Aventis, priority 2007, dated 2011).

Molecular target: T1, human P2Y12 receptor (Homo sapiens, UniProt Q9H244)
T1 construct: expressed in transfected cells; host or cells: Chinese Hamster Ovary (CHO) cells, membrane preparation
Experiment: Human P2Y12 recombinant cell membrane binding assay
Conditions: competition against 33P 2MeS-ADP; membranes of CHO cells with recombinant human P2Y12 receptor; read-out: inhibition MeSADP binding P2Y12, IC 50
Method: Human P2Y12 Recombinant Cell Membrane Binding Assay
The ability of a test compound to bind to the P2Y12 receptor was evaluated in a recombinant cell membrane binding assay. In this competitive binding assay, the test compound competed against a radiolabeled agonist for binding to the P2Y12 receptor, expressed on the cell membrane. Inhibition of binding of the labeled material was measured and correlated to the amount and potency of the test compound. This binding assay is a modification of the procedure described by Takasaki, J. et. al, Mol. Pharmacol., 2001, Vol. 60, pg. 432.
As source of P2Y12, a membrane preparation was prepared from Chinese Hamster Ovary (CHO) cells with recombinant expression of the human P2Y12 receptor according to standard procedures.
To a 96-well microtiterplate the following were added: a) 24 μl of assay buffer (10 mM HEPES, 138 mM NaCl, […] KCl, 12 mM NaHCO3, 1 mM EDTA-Na, 0.1% BSA, pH 7.4) b) 1 μL compound in DMSO c) 50 μL P2Y12 CHO membrane (20 μg/ml) and after 15 min at RT d) 25 μL of 1.61 nM ^33P 2MeS— ADP (Perkin Elmer NEN custom synthesis, specific activity ˜2100 Ci/mmol) made in assay buffer.
After 20 min incubation at RT samples were transferred to 96-well microtiter filterplates (Millipore HTS GF/B), pre-wetted for 20 min with 300 μL of stop buffer (10 mM HEPES, 138 mM NaCl pH 7.4) and then filtered through completely with a Millipore plate vacuum. Next, wells were washed four times with 400 μl/well of stop buffer on a plate vacuum. The plate was disassembled and allowed to air dry overnight with the filter side up over night. The filter plates were snapped into adapter plates and 0.1 mL of Microscint 20 Scintillation Fluid (Perkin Elmer #6013621) was added to each well. The top of the filterplate was sealed with plastic plate covers. The sealed filterplate were incubated 2 hours at room temperature. A Microbeta Scintillation Counter was used to measure counts. The binding of compound is expressed as a % inhibition of specific binding, defined by subtraction of the background with 1 mM ADP. Compounds were diluted as 10 mM DMSO stocks and tested in a four-point, five-fold dilution series run in triplicate beginning at 10 μM, final concentration. Data were analyzed using a four-parameter curve fit with a fixed minimum and maximum experimentally defined as the average positive and negative controls on each plate.

T1 sequence (Q9H244 whole entry): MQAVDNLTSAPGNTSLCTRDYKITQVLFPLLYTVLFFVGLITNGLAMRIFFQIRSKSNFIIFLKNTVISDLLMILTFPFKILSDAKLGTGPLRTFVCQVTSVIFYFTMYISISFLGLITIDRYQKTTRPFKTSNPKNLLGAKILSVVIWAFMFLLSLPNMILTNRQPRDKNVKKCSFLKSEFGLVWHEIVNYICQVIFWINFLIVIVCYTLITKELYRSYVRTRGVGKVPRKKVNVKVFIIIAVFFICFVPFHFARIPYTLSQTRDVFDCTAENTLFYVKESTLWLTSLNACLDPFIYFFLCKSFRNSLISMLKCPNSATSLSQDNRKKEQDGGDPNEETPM

Compound | IC50 [µM]
Cc1[nH]c(-c2ccccc2)cc1C(=O)C(=O)N1CCN(c2ccc(Cl)c(C(F)(F)F)c2)CC1 [Example 10, 1-[4-(4-Chloro-3-trifluoromethyl-phenyl)-piperazin-1-yl]-2-(2-methyl-5-phenyl-1H-pyrrol-3-yl)-ethane-1,2-dione] | 0.7
Cc1[nH]c(-c2ccccc2)cc1C(=O)C(=O)N1CCN(c2cccc(C(F)(F)F)c2)CC1 [Example 1, 1-(2-Methyl-5-phenyl-1H-pyrrol-3-yl)-2-[4-(3-trifluoromethyl-phenyl)-piperazin-1-yl]-ethane-1,2-dione] | 0.5
CCOC(=O)c1cccc(N2CCN(C(=O)C(=O)c3cc(-c4ccccc4)[nH]c3C)CC2)c1 [Example 33, 3-{4-[2-(2-Methyl-5-phenyl-1H-pyrrol-3-yl)-2-oxo-acetyl]-piperazin-1-yl}-benzoic acid ethyl ester] | 0.17

The remaining lines, values ahead:

IC50 [µM] | Compound
0.03 | Cc1[nH]c(-c2ccccc2)c(/C=C/C(=O)O)c1C(=O)C(=O)N1CCN(c2cccc(C(F)(F)F)c2)CC1 [Example 71, (E)-3-(5-Methyl-4-{2-oxo-2-[4-(3-trifluoromethyl-phenyl)-piperazin-1-yl]-acetyl}-2-phenyl-1H-pyrrol-3-yl)-acrylic acid]
0.52 | Cc1[nH]c(-c2ccccc2)cc1C(=O)C(=O)N1CCC(C(=O)c2cccc(Cl)c2)CC1 [Example 52, 1-[4-(3-Chloro-benzoyl)-piperidin-1-yl]-2-(2-methyl-5-phenyl-1H-pyrrol-3-yl)-ethane-1,2-dione]
0.71 | Cc1[nH]c(-c2ccccc2)cc1C(=O)C(=O)N1CCC(C(=O)c2ccc(Br)cc2)CC1 [Example 51, 1-[4-(4-Bromo-benzoyl)-piperidin-1-yl]-2-(2-methyl-5-phenyl-1H-pyrrol-3-yl)-ethane-1,2-dione]
